Test results taken from EP2022796A1, “Amorphous ciclesonide” (Nycomed GmbH, priority 2007, dated 2009).
Values after ≈ are worked out from the molar mass of the structure shown.

Columns and labels:
Assay type in all cases: physicochemical
[1] = Dissolution experiments in water (dissolution kinetics); conditions: 37°C
Protocol: For each timepoint (5 min, 10 min, 20 min, 35 min, 60 min and 1440 min) of the dissolution experiment, three samples each of X-ray amorphous and crystalline ciclesonide were prepared by weighing a defined amount of in each case about 15 mg into a 250 ml conical wide-necked Erlenmeyer flask and stirring (850 rpm, glass coated magnetic stir bar, having a length of 2.4 cm and a diameter of 0.59 cm) the samples at 37°C in 100 ml water (Millipore quality, ELIX 3, Gradient A 10, pH 5.92 - 6.00). The moment of the addition of water was defined as to. The tempering of the samples was performed using an air bath. After the desired stirring time, the complete samples were filtered through a 0.2 µm membrane filter (Schleicher & Schuell, RC 0.2 µm Spartan 30/A) and concentrated on a Sep-Pak cartridge (Waters Sep-Pak cartridge C18, WAT051910). The cartridge was then eluted with ethanol (gradient grade, Merck). The ciclesonide in the ethanol solution was then quantified by HPLC (LaChrom®-HPLC System Series 7000, column: Zorbax SB phenyl, eluent: water/ethanol 38 % : 62 % (v/v) isocratic, column temperature: 60°C, injection volume: 50 µL, UV-detection at 243 nm) against an external standard.

[2] = Saturation solubility experiments in water; conditions: 37°C, 30 min ultrasonic treatment then stirred 24 hours; for saturation solubility: 1440 min
Protocol: Defined amounts of in each case about 14 to 25 mg of X-ray amorphous or crystalline ciclesonide were weighed into a conical Erlenmeyer flask equipped with a rubber stopper (n = 3). 100 ml of water (Millipore quality, ELIX 3, Gradient A 10, pH 5.92 - 6.00) were added and 30 minutes of ultrasonic treatment was applied to the samples. Afterwards the samples were stirred in the dark for 24 hours at 37°C in a water bath. After the desired stirring time, each sample was filtered through a 0.2 µm membrane filter (Schleicher & Schuell, RC 0.2 µm Spartan 30/A) and concentrated on a Sep-Pak cartridge (Waters Sep-Pak cartridge C18, WAT051910). Then the cartridge was eluted with ethanol (gradient grade, Merck). The ciclesonide in the ethanol solution was then quantified by HPLC (LaChrom®-HPLC System Series 7000, column: Zorbax SB phenyl, eluent: water/ethanol 38 % : 62 % (v/v) isocratic, column temperature: 60°C, injection volume: 50 µL, UV-detection at 243 nm) against an external standard.

[3] = Stability under elevated pressure (recrystallization); conditions: pressure of up to 2.500 for 5 min
Text: Such a stability against pressure is particularly desirable when a pharmaceutical agent is used for preparation of solid pharmaceutical compositions such as tablets or granules.

[4] = Hygroscopicity
[5] = listed as crystalline form of ciclesonide

concentration of dissolved ingredient within 5 minutes ([1]; 5 minutes) [ng/mL]	concentration of dissolved ingredient after 20 minutes ([1]; 20 minutes) [ng/mL]	concentration of dissolved ingredient relative to crystalline ciclesonide after 1 hour ([1]; after 1 hour, amorphous versus crystalline)	concentration of dissolved ciclesonide after 24 hours [1] [ng/mL]	saturation solubility [2] [µg/mL]	hygroscopicity [4]	solubility at 1 h ([1]; after 1 hour) [µg/mL]	concentration of dissolved ciclesonide after 24 hours [1, 5]	solubility at 24 h [2] [µg/mL]	saturation solubility [2, 5]	SMILES	stability under pressure (signs of recrystallization) [3]
290	340	about sevenfold higher	105	0.0916 ± 0.0052	not hygroscopic	–	–	–	–	CC(C)C(=O)OCC(=O)C12OC(C3CCCCC3)OC1CC1C3CCC4=CC(=O)C=CC4(C)C3C(O)CC12C (stereo not drawn) [amorphous ciclesonide, 16,17-[(Cyclohexyl-methylene)bis(oxy)]-11-hydroxy-21-(2-methyl-1-oxopropoxy)-pregna-1,4-diene-3,20-dione[11β,16α]]	did not show any signs of recrystallization
–	–	–	64	0.0901 ± 0.0022	–	~0.05 (≈ 0.0925 µM)	about 64 µg/l	0.091 (≈ 0.168 µM)	about 91 µg/l	CC(C)C(=O)OCC(=O)C12OC(C3CCCCC3)OC1CC1C3CCC4=CC(=O)C=CC4(C)C3C(O)CC12C (stereo not drawn) [crystalline ciclesonide, 16,17-[(Cyclohexyl-methylene)bis(oxy)]-11-hydroxy-21-(2-methyl-1-oxopropoxy)-pregna-1,4-diene-3,20-dione[11β,16α], reference compound]	–
